For 35 compounds, IC50 results are on record in US20140163026A1, “8-ETHYL-6-(ARYL)PYRIDO[2,3-D]PYRIMIDIN-7(8H)-ONES FOR THE TREATMENT OF NERVOUS SYSTEM DISORDERS AND CANCER” (Afraxis Holdings, Inc., priority 2011, published 2014).

A value given as a limit tells only on which side of the number the result lay.

What all share (assay type): biochemical
The target in one assay is PAK1 (Homo sapiens, UniProt Q13153). The assay can be described thus: In vitro PAK inhibition assay (SelectScreen, Ser/Thr 19 peptide). The gist of the method: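 Ten-point, 3-fold compound series at 1% final DMSO were incubated with enzyme, Ser/Thr 19 peptide and ATP for 60 min at room temperature. Buffer was HEPES pH 7.5 (50 mM) with 10 mM MgCl2, 1 mM EGTA, 0.01% BRIJ-35. A 60 min development step preceded the fluorescence read converted to % phosphorylation.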

The next assay addresses PAK2 (PAK65) (Homo sapiens, UniProt Q13177). The assay can be described thus: In vitro PAK inhibition assay (SelectScreen, Ser/Thr 20 peptide). In short, it runs like this:
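Ten-point threefold compound dilutions (1% DMSO) were incubated with PAK2 (0.29-6 ng) and Ser/Thr 20 substrate (2 μM) for 60 min at room temperature in HEPES pH 7.5 buffer with MgCl2, EGTA and BRIJ-35.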

The next assay has as its target PAK3 (Homo sapiens, UniProt O75914). The assay is described as above. In short, it runs like this:
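Fluorescence-based development format: after a 60-min room-temperature kinase reaction and 60-min protease development, percent phosphorylation of Ser/Thr 20 peptide calculated via phosphopeptide controls. Buffer 50 mM HEPES pH 7.5, 10 mM MgCl2, 1 mM EGTA, 0.01% BRIJ-35; compounds at 1% DMSO, 10-point 3-fold dilution series.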

A further assay deals with PAK4 (Homo sapiens, UniProt O96013). Described as above. The gist of the method:
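Ten-point, 3-fold compound series (1% DMSO) incubated 1 h at room temperature with PAK4 (0.1-0.75 ng) and 2 μM Ser/Thr 20 peptide, HEPES pH 7.5 buffer with MgCl2, EGTA, BRIJ-35. Development reagent cleaves non-phosphorylated peptide; fluorescence emission ratio gives % phosphorylation, fitted sigmoidally for IC50.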

Sequence of PAK4 (O96013 whole entry): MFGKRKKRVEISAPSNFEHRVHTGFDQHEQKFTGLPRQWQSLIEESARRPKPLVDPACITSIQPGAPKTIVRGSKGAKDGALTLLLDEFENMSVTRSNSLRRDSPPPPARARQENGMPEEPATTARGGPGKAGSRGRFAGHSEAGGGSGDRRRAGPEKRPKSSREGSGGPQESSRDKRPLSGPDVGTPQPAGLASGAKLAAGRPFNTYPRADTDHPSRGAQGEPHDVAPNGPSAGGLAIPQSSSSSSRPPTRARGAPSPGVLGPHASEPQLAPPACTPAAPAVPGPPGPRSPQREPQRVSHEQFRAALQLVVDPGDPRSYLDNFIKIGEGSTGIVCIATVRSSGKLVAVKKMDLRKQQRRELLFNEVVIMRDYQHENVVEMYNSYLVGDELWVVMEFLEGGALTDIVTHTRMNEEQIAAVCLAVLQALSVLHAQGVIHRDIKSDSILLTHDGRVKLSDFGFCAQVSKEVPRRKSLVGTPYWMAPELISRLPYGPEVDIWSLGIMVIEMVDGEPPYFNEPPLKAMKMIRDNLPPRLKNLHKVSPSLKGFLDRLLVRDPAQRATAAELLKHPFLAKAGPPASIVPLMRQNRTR
Sequence of PAK2 (PAK65) (Q13177 whole entry): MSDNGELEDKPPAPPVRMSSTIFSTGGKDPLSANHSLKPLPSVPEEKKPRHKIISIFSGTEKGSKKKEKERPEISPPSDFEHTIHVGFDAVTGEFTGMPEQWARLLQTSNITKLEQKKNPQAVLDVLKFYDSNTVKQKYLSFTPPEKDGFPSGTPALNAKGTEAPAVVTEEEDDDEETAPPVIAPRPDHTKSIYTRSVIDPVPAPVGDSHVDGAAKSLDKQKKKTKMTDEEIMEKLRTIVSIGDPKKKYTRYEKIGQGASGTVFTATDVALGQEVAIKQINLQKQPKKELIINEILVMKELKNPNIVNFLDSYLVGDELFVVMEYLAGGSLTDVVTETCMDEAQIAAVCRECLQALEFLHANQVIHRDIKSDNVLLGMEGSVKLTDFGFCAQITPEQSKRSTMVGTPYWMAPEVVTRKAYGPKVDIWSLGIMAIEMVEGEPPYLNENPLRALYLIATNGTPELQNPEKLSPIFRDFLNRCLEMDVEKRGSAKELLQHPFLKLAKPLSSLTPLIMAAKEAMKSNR
Sequence of PAK1 (Q13153 whole entry): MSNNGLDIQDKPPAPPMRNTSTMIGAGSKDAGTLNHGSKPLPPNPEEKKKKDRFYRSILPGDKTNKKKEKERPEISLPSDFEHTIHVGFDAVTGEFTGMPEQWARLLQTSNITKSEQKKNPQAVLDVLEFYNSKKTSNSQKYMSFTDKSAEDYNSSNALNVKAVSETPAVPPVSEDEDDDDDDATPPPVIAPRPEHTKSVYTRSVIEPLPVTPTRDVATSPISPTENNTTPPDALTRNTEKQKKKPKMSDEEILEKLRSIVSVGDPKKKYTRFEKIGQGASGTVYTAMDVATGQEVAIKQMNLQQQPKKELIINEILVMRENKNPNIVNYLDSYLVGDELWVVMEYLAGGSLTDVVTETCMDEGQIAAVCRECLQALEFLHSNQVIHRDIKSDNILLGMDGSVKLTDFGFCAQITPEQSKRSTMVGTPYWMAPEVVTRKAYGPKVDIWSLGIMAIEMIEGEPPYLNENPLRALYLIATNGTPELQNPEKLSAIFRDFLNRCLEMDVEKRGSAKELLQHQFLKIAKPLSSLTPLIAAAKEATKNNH
Sequence of PAK3 (O75914 whole entry): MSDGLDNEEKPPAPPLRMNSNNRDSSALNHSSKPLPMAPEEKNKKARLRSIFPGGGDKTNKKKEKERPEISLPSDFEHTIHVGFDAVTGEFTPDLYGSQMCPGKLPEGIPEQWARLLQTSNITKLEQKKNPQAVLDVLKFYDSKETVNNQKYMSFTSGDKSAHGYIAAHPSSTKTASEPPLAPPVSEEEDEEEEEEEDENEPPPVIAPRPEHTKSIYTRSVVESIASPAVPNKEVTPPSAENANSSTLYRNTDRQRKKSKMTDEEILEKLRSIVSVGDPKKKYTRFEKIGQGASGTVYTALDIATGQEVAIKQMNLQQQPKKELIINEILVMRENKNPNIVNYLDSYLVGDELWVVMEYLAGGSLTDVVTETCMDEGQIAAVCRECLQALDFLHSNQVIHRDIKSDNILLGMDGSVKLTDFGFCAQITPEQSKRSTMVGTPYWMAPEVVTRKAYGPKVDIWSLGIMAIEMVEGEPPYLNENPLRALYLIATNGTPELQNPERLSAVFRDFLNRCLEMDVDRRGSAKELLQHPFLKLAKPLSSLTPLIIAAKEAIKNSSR

As a reminder, the IC50 is the concentration at which inhibition is half-maximal. A high value points to weaker potency. Take `CCn1c(=O)c(-c2ccc(C3CC3)cc2)cc2cnc(Nc3ccc(N4CCN(C)CC4)cc3)nc21`: the IC50 is 50 to 500 nM against PAK1, 500 to 5000 nM on PAK2 (PAK65), 500 to 5000 nM against PAK3 and at least 5000 nM against PAK4.
With `CCn1c(=O)c(-c2ccc(-c3ccsc3)cc2)cc2cnc(Nc3ccc(N4CCN(C)CC4)cc3)nc21`, the IC50 on PAK1 is 50 to 500 nM; against PAK2 (PAK65), 500 to 5000 nM; on PAK3 it was 50 to 500 nM; against PAK4, at least 5000 nM.
Consider `CCn1c(=O)c(-c2ccc(-c3ccoc3)cc2)cc2cnc(Nc3ccc(N4CCN(C)CC4)cc3)nc21`, for which the IC50 is 50 to 500 nM at PAK1, over 5000 nM at PAK2 (PAK65), over 5000 nM against PAK3 and at least 5000 nM on PAK4.
As to `CCn1c(=O)c(-c2ccc(-c3ccc(OC)nc3)cc2)cc2cnc(Nc3ccc(N4CCN(C)CC4)cc3)nc21`, the IC50 was 50 to 500 nM on PAK1, 50 to 500 nM on PAK2 (PAK65), 50 to 500 nM at PAK3 and at least 5000 nM against PAK4.
For the compound `CCn1c(=O)c(-c2nc(C3CCNCC3)sc2C)cc2cnc(Nc3ccc(N4CCN(C)CC4)cc3)nc21`, the 50% inhibitory concentration (IC50) against PAK1 was 500 to 5000 nM; against PAK2 (PAK65), over 5000 nM; against PAK3, over 5000 nM; against PAK4, at least 5000 nM.
Consider `CCn1c(=O)c(-c2ccc(-c3cncnc3)cc2Cl)cc2cnc(Nc3ccc(C4CNCCO4)cc3)nc21` (centres unmarked), for which the IC50 was under 50 nM on PAK1, under 50 nM against PAK2 (PAK65), under 50 nM on PAK3 and 500 to 5000 nM at PAK4.
With `CCn1c(=O)c(-c2nc(C3CCN(C)CC3)sc2C)cc2cnc(Nc3ccc(N4CCN(C)CC4)cc3)nc21`, the IC50 was over 5000 nM on PAK1, over 5000 nM on PAK2 (PAK65), over 5000 nM on PAK3 and at least 5000 nM on PAK4.
As for `CCn1c(=O)c(-c2ccc(-c3ccc(NC(C)=O)nc3)cc2Cl)cc2cnc(Nc3ccc(N4CCN(C)CC4)cc3)nc21`, the IC50 against PAK1 was over 5000 nM; at PAK2 (PAK65) it was 500 to 5000 nM; on PAK3, 500 to 5000 nM; on PAK4, at least 5000 nM.
In the case of `CCn1c(=O)c(-c2ccc(-c3cncnc3)cc2)cc2cnc(Nc3ccc(N4CCN(C)CC4)cc3)nc21`, the IC50 on PAK1 is 50 to 500 nM; against PAK2 (PAK65), 50 to 500 nM; against PAK3, 500 to 5000 nM; on PAK4, at least 5000 nM.
On to `CCn1c(=O)c(-c2ccc(-c3cccc4ncccc34)cc2)cc2cnc(Nc3ccc(N4CCN(C)CC4)cc3)nc21`, for which the IC50 at PAK1 is over 5000 nM; on PAK2 (PAK65), over 5000 nM; against PAK3, over 5000 nM; on PAK4 it was at least 5000 nM.
With `CCn1c(=O)c(-c2ccc(-c3cccs3)s2)cc2cnc(Nc3ccc(N4CCN(C)CC4)cc3)nc21`, the IC50 at PAK1 is over 5000 nM; at PAK2 (PAK65), over 5000 nM; against PAK3, over 5000 nM; at PAK4, at least 5000 nM.
Take `CCn1c(=O)c(-c2nc(C3CCN(C(C)=O)CC3)sc2C)cc2cnc(Nc3ccc(N4CCN(C)CC4)cc3)nc21`: the IC50 against PAK1 is over 5000 nM; against PAK2 (PAK65), over 5000 nM; on PAK3 it was over 5000 nM; at PAK4, at least 5000 nM.
As for `CCn1c(=O)c(-c2ccc(-c3cncnc3)cc2Cl)cc2cnc(Nc3ccc(C4CN(C)CCO4)cc3)nc21` (centres unmarked), the IC50 at PAK1 is under 50 nM; on PAK2 (PAK65), under 50 nM; at PAK3 it was under 50 nM; at PAK4 it was at least 5000 nM.
For the compound `CCn1c(=O)c(-c2ccc(-c3ncc(C)s3)cc2Cl)cc2cnc(Nc3ccc(N4CCN(C)CC4)cc3)nc21`, the IC50 was under 50 nM against PAK1, under 50 nM against PAK2 (PAK65), 50 to 500 nM against PAK3 and 500 to 5000 nM against PAK4.
As for `CCn1c(=O)c(-c2ccc(-c3nccnc3C)cc2Cl)cc2cnc(Nc3ccccc3)nc21`, the IC50 was 50 to 500 nM on PAK1, 50 to 500 nM against PAK2 (PAK65), 50 to 500 nM at PAK3 and at least 5000 nM at PAK4.
In the case of `CCn1c(=O)c(-c2cc(C)c(-c3cccnc3C)cc2Cl)cc2cnc(Nc3ccc(C4CCN(C)CC4)cc3)nc21`, the IC50 at PAK1 was under 50 nM; against PAK2 (PAK65) it was under 50 nM; on PAK3, 50 to 500 nM; at PAK4, at least 5000 nM.
With `CC(=O)Nc1cc(-c2cc3cnc(Nc4ccc(CCN(C)C)cc4)nc3n(C)c2=O)c(Cl)cc1-c1cccnc1`, the IC50 is 50 to 500 nM against PAK1, 50 to 500 nM against PAK2 (PAK65), 50 to 500 nM against PAK3 and at least 5000 nM against PAK4.
In the case of `Cc1cnc(-c2ccc(-c3cc4cnc(Nc5ccc(C6CCN(C)CC6)cc5)nc4n(C)c3=O)c(C)c2)s1`, the IC50 against PAK1 was under 50 nM; against PAK2 (PAK65), under 50 nM; against PAK3, 50 to 500 nM; against PAK4, 500 to 5000 nM.
`Cc1nc(-c2ccc(-c3cc4cnc(Nc5ccc(C6CCN(C)CC6)cc5)nc4n(C)c3=O)c(C)c2)no1`: the 50% inhibitory concentration (IC50) is under 50 nM at PAK1, under 50 nM against PAK2 (PAK65), under 50 nM at PAK3 and at least 5000 nM at PAK4.
Consider `CCn1c(=O)c(-c2ccc(-c3nccnc3C)cc2C)cc2cnc(Nc3ccc(C4CCN(C)CC4)cc3)nc21`, for which the IC50 was under 50 nM at PAK1, under 50 nM at PAK2 (PAK65), under 50 nM against PAK3 and at least 5000 nM against PAK4.
In the case of `CC(=O)Nc1ncccc1-c1ccc(Cl)c(-c2cc3cnc(Nc4ccc(C5CCN(C)CC5)cc4)nc3n(C)c2=O)c1`, the IC50 against PAK1 was 50 to 500 nM; on PAK2 (PAK65) it was 50 to 500 nM; on PAK3, 500 to 5000 nM; against PAK4, at least 5000 nM.
In the case of `CCn1c(=O)c(-c2ccc(-c3ncc(C)s3)cc2C)cc2cnc(Nc3ccc(C4CCN(C)CC4)cc3)nc21`, the IC50 is under 50 nM on PAK1, under 50 nM against PAK2 (PAK65), 50 to 500 nM on PAK3 and 500 to 5000 nM against PAK4.
`CN1CCC(c2ccc(Nc3ncc4cc(-c5cc(-c6cccnc6N(C)C)ccc5Cl)c(=O)n(C)c4n3)cc2)CC1`: the IC50 against PAK1 was 500 to 5000 nM; against PAK2 (PAK65), 500 to 5000 nM; on PAK3, over 5000 nM; against PAK4, at least 5000 nM.
As to `CN1CCC(c2ccc(Nc3ncc4cc(-c5cc(-c6cnccn6)ccc5Cl)c(=O)n(C)c4n3)cc2)CC1`, the IC50 against PAK1 was 50 to 500 nM; against PAK2 (PAK65), 500 to 5000 nM; at PAK3, 50 to 500 nM; at PAK4, at least 5000 nM.
As to `Cc1ccc(-c2cccnc2)cc1-c1cc2cnc(Nc3ccc(C4CCN(C)CC4)cc3)nc2n(C)c1=O`, the IC50 against PAK1 was 50 to 500 nM; against PAK2 (PAK65), 500 to 5000 nM; at PAK3 it was 50 to 500 nM; on PAK4 it was at least 5000 nM.
In the case of `Cc1nc(-c2ccc(Cl)c(-c3cc4cnc(Nc5ccc(C6CCN(C)CC6)cc5)nc4n(C)c3=O)c2)no1`, the 50% inhibitory concentration (IC50) against PAK1 was 500 to 5000 nM; against PAK2 (PAK65), 500 to 5000 nM; at PAK3, 50 to 500 nM; against PAK4, at least 5000 nM.
Turning to `CN1CCC(c2ccc(Nc3ncc4cc(-c5cc(-c6ccncc6)ccc5Cl)c(=O)n(C)c4n3)cc2)CC1`, the half-maximal inhibitory concentration (IC50) against PAK1 is 500 to 5000 nM; against PAK2 (PAK65) it was over 5000 nM; against PAK3, over 5000 nM; against PAK4, at least 5000 nM.
Take `CC(=O)N(C)c1ncccc1-c1ccc(Cl)c(-c2cc3cnc(Nc4ccc(C5CCN(C)CC5)cc4)nc3n(C)c2=O)c1`: the IC50 at PAK1 is over 5000 nM; at PAK2 (PAK65), over 5000 nM; on PAK3, 500 to 5000 nM; against PAK4 it was at least 5000 nM.
For the compound `CN1CCC(c2ccc(Nc3ncc4cc(-c5cc(-c6ccccn6)ccc5Cl)c(=O)n(C)c4n3)cc2)CC1`, the IC50 was 50 to 500 nM against PAK1, 500 to 5000 nM against PAK2 (PAK65), 50 to 500 nM on PAK3 and at least 5000 nM against PAK4.
Consider `Cc1cnc(-c2ccc(Cl)c(-c3cc4cnc(Nc5ccc(C6CCN(C)CC6)cc5)nc4n(C)c3=O)c2)s1`, for which the IC50 on PAK1 is 50 to 500 nM; at PAK2 (PAK65), over 5000 nM; on PAK3, 50 to 500 nM; against PAK4, at least 5000 nM.
Take `CN1CCC(c2ccc(Nc3ncc4cc(-c5cc(-c6nccc(N(C)C)n6)ccc5Cl)c(=O)n(C)c4n3)cc2)CC1`: the IC50 against PAK1 was 500 to 5000 nM; on PAK2 (PAK65) it was over 5000 nM; against PAK3, 50 to 500 nM; at PAK4 it was 500 to 5000 nM.
Turning to `CC(=O)N(C)c1cc(-c2cc3cnc(Nc4ccc(CCN(C)C)cc4)nc3n(C)c2=O)c(Cl)cc1-c1cccnc1`, the IC50 against PAK1 was 50 to 500 nM; against PAK2 (PAK65), 50 to 500 nM; on PAK3 it was 50 to 500 nM; against PAK4, at least 5000 nM.
On to `CC(=O)Nc1ccc(-c2ccc(Cl)c(-c3cc4cnc(Nc5ccc(C6CCN(C)CC6)cc5)nc4n(C)c3=O)c2)cn1`, for which the IC50 on PAK1 was over 5000 nM; at PAK2 (PAK65) it was over 5000 nM; on PAK3, over 5000 nM; against PAK4 it was 500 to 5000 nM.
For `CC(=O)Nc1ccnc(-c2ccc(Cl)c(-c3cc4cnc(Nc5ccc(C6CCN(C)CC6)cc5)nc4n(C)c3=O)c2)n1`, the IC50 against PAK1 was over 5000 nM; on PAK2 (PAK65) it was over 5000 nM; against PAK3, over 5000 nM; at PAK4 it was at least 5000 nM.
`CC(=O)N(C)c1ccc(-c2ccc(Cl)c(-c3cc4cnc(Nc5ccc(C6CCN(C)CC6)cc5)nc4n(C)c3=O)c2)cn1`: the half-inhibitory concentration (IC50) against PAK1 is over 5000 nM; at PAK2 (PAK65) it was over 5000 nM; against PAK3, over 5000 nM; on PAK4 it was at least 5000 nM.
